The record followed here is the Kinase Knowledgebase extract (Sharma et al. 2016).

What is called GI50 is the concentration at which growth is held to half of that of the control. By IC50 is commonly meant the concentration at which inhibition is half-maximal. Low values mean inhibition by little substance, high ones a need for much substance.

For test [1], the target named is EGFR (human) (UniProt P00533). The settings on record: snu638.
For test [2], the target named is EGFR (human) (UniProt P00533). The settings on record: a431.
The target in test [3] is EGFR (human) (UniProt P00533). The settings on record: a549.
The target of test [4] is EGFR (human) (UniProt P00533).

Sequence of EGFR (human) (P00533 whole entry, looked up): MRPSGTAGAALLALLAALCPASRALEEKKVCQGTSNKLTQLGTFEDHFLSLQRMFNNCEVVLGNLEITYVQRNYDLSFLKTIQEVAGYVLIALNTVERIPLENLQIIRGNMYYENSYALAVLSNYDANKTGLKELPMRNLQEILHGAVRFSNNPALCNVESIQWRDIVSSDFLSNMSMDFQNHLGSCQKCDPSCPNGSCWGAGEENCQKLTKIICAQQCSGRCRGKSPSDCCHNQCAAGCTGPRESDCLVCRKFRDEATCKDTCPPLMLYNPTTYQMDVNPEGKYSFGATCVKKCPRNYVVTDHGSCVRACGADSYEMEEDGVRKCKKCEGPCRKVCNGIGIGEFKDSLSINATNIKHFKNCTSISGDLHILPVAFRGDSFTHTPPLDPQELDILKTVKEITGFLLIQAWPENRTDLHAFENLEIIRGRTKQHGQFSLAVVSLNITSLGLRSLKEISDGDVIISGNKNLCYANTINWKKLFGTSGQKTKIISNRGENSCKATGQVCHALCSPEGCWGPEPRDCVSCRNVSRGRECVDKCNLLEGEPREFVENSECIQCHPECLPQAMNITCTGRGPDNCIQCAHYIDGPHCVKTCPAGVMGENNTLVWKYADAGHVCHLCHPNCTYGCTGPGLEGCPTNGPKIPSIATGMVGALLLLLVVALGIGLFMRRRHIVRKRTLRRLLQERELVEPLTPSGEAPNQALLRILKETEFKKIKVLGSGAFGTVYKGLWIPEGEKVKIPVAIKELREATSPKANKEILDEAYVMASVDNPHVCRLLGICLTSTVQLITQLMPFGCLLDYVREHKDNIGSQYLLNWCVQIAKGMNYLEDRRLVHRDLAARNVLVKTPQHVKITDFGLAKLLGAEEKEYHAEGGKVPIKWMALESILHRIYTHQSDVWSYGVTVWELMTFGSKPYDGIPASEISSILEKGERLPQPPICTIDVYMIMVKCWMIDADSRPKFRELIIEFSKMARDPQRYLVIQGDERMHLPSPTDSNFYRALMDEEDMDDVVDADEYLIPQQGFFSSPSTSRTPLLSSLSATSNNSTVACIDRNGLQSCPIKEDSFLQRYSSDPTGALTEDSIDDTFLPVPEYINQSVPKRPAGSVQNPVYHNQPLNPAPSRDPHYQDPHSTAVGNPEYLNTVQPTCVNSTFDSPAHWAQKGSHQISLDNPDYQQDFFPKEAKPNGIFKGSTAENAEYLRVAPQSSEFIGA

Regarding `Fc1cc(Nc2ncnc3cc4c(cc23)OCCO4)ccc1Cl`, the 50% growth inhibitory concentration (GI50) is above 100000 nM in the test with EGFR (human) [1], 490 nM with EGFR (human) [2] and 75900 nM with EGFR (human) [3].

Turning to `Clc1cccc(Nc2ncnc3cc4c(cc23)OCCO4)c1`, the GI50 amounted to 4680 nM with EGFR (human) [1], 190 nM with EGFR (human) [2] and 4270 nM with EGFR (human) [3]. Also, at EGFR (human) [4], the IC50 amounted to 8.3 nM.

As for `Cc1cc(C)cc(Nc2ncnc3cc4c(cc23)OCCO4)c1`, the concentration for 50% growth inhibition (GI50) with EGFR (human) [1] came out at 170 nM; in the test with EGFR (human) [2], 120 nM; in the test with EGFR (human) [3] it was 230 nM.

As for `Ic1cccc(Nc2ncnc3cc4c(cc23)OCCO4)c1`, the GI50 with EGFR (human) [1] was 6170 nM; in the test with EGFR (human) [2], 1550 nM; in the test with EGFR (human) [3], 5620 nM. The same compound had a half-inhibitory concentration (IC50) against EGFR (human) [4] of 63 nM.

For `Brc1cccc(Nc2ncnc3cc4c(cc23)OCCO4)c1`, the values for the 50% growth inhibitory concentration (GI50) with EGFR (human) [1], with EGFR (human) [2] and with EGFR (human) [3] were 5750 nM, 200 nM and 4370 nM, respectively. The compound also returned an IC50 against EGFR (human) [4] of 17.8 nM.

Regarding `FC(F)(F)c1cccc(Nc2ncnc3cc4c(cc23)OCCO4)c1`, the GI50 worked out at 2750 nM with EGFR (human) [1], 140 nM with EGFR (human) [2] and 2240 nM with EGFR (human) [3].

Turning to `c1ccc(Nc2ncnc3cc4c(cc23)OCCO4)cc1`, the 50% growth inhibitory concentration (GI50) stood at 55000 nM with EGFR (human) [1], 3800 nM in the test with EGFR (human) [2] and 45700 nM with EGFR (human) [3].

In the case of `Fc1ccc(Nc2ncnc3cc4c(cc23)OCCO4)cc1`, the 50% growth inhibitory concentration (GI50) was found to be 49000 nM in the test with EGFR (human) [1], 1290 nM in the test with EGFR (human) [2] and 40700 nM with EGFR (human) [3]. In addition, the IC50 against EGFR (human) [4] came out at 77.6 nM.
